Source: patent publication US20060140872A1, “Novel signaling pathway for the production of inglammatory pain and neuropathy” (KOWA CO., LTD., priority 2003, published 2006)

Tested on: allergic contact dermatitis (picryl chloride-induced dermatitis)
Test: Mouse model of picryl chloride-induced dermatitis (auricle thickness)
Format: in vivo, mouse (female BALB/C)
Conditions: applied on left auricle 1 hour before induction; thickness 24 hours after induction; dose not given; FIG. 2

Compound: COc1cccc(-c2cc(=O)c3ccccc3o2)c1N [PD98059, 2-(2-amino-3-methoxyphenyl)-4-oxo-4H-[1]benzopyran]
- suppressive action for allergic contact dermatitis (difference in auricle thickness): exhibited suppressive action for allergic contact dermatitis
